# Reference: US20060110401A1, “Mixture of peptides from c and ns3 proteins of the hepatitis c virus and applications thereof” (priority 2002, published 2006)
# pIC50: −log10 of the molar value. Like-named read-outs stand apart in the source and are kept apart here. Marks after values point to notes of the source that are not given here. Residues, ends and D or L forms follow the SMILES beside them.
# How the values were obtained:
# HLA-DR1 (DRB1*0101) = target: T1, HLA-DR1 (DRB1*0101) (Homo sapiens, UniProt P01903+P01911, A100R/D57E/F55L/F60I/F76Y/I96L/L162R/M171V/P40L/Q125E/R42F/V115G/Y59C); assay: biochemical; type: binding; conditions: for pIC50: DRB1*0101
# T1 construct: endogenous in cells; host or cells: homozygous EBV-transformed human B lymphocyte lines; immunopurified with antibody L243
# HLA-DR7 (DRB1*0701) = HLA-DR7 (DRB1*0701) (Homo sapiens, UniProt P01903+P01911, A100R/A102G/A103Q/D57E/D86V/E43K/F76Y/K127E/L162R/M171V/P40G/Q125H/Q99D/R33Q/R42Y/R54Q/S133A/S66F/T210M/V115G/Y107V/Y59L/Y89S); assay: biochemical; type: binding; conditions: read-out: binds with good affinity to DR7
# HLA-DR11 (DRB1*1101) = HLA-DR11 (DRB1*1101) (Homo sapiens, UniProt P01903+P01911, A100R/A169T/A87E/I96F/K41T/L162R/M171V/P40S/Q125H/Q178H/Q39Y/Q99D/R42S/S66Y/T262R/V115G/W38E); assay: biochemical; type: binding; conditions: read-out: binds with good affinity to DR11
# HLA-DR15 (DRB1*1501) = target: T2, HLA-DR15 (DRB1*1501) (Homo sapiens, UniProt P01903+P01911); assay: biochemical; type: binding; conditions: DRB1*1501; read-out: binds with good affinity to DR15
# T2 construct: endogenous in cells; host or cells: homozygous EBV-transformed human B lymphocyte lines; immunopurified with antibody L243
# HLA-DRB5 (DRB5*0101) = target: T3, HLA-DRB5 (DRB5*0101) (Homo sapiens, UniProt P01903+Q30154); assay: biochemical; type: binding; conditions: read-out: binds with good affinity to DRB5
# T3 construct: endogenous in cells; host or cells: homozygous EBV-transformed human B lymphocyte lines; immunopurified with antibody L243
# DR1 = assay: DR1
# DRB3 = assay: DRB3
# DRB5 = assay: DRB5
# DRB4 = assay: DRB4
# Text: Table printed on a drawing sheet, Figure 2
# Where the first naming reader finds the target: head: DRB4
# DR15 = assay: DR15
# DP402 = assay: DP402
# HLA-DRB4 (DRB4*0101) = target: T4, HLA-DRB4 (DRB4*0101) (Homo sapiens, UniProt P01903+P13762, G164S); assay: biochemical; type: binding
# T4 construct: endogenous in cells; host or cells: homozygous EBV-transformed human B lymphocyte lines; immunopurified with antibody L243
# DR4 = assay: DR4
# [1] = tested on: T lymphocytes derived from PBMCs from patients chronically infected with HCV; type: cell-based, human
# DP401 = assay: DP401
# [2] = read-out: binds with good affinity to DR1
# [3] = competition with biotinylated tracer HA 306-318, read-out: IC50, binding to HLA-DR1
# [4] = patient 067, supernatant 48 h, —: not detected
# [5] = patient 078, supernatant 48 h, —: not detected
# [6] = patient 093, supernatant 48 h, —: not detected
# [7] = patient 659, supernatant 48 h, —: not detected
# [8] = patient 815, supernatant 48 h, —: not detected
# [9] = patient 630, supernatant 48 h, —: not detected
# [10] = patient 862, supernatant 48 h, —: not detected
# Sequence of HLA-DR11 (DRB1*1101) (P01903 26-254 limits assumed, other chains not shown): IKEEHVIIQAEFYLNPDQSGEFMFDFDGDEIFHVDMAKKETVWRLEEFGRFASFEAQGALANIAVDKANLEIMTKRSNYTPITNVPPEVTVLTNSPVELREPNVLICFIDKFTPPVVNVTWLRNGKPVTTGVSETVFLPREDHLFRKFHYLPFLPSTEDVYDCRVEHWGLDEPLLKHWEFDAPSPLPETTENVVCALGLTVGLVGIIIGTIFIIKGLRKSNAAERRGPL
compound,measurement,setting,value
CC[C@H](C)[C@H](NC(=O)[C@H](Cc1ccc(O)cc1)NC(=O)CNC(=O)[C@H](CCSC)NC(=O)[C@H](CC(C)C)NC(=O)[C@H](CC(=O)O)NC(=O)[C@H](C)NC(=O)[C@H](Cc1ccccc1)NC(=O)CNC(=O)[C@H](C)NC(=O)[C@@H](N)[C@@H](C)O)C(=O)N1CCC[C@H]1C(=O)N[C@@H](CC(C)C)C(=O)N[C@H](C(=O)NCC(=O)N[C@@H](C)C(=O)N1CCC[C@H]1C(=O)N[C@@H](CC(C)C)C(=O)NCC(=O)NCC(=O)N[C@@H](C)C(=O)N[C@@H](C)C(=O)N[C@@H](CCCNC(=N)N)C(=O)O)C(C)C [5C 127-149] (H-TAGFADLMGYIPLVGAPLGGAAR-OH; N-terminus and C-terminus assumed),pIC50,HLA-DR1 (DRB1*0101); [2],> 6.00
same,pIC50,HLA-DR7 (DRB1*0701),> 6.00
same,pIC50,HLA-DR11 (DRB1*1101),> 6.00
same,pIC50,HLA-DR15 (DRB1*1501),> 6.00
same,pIC50,HLA-DRB5 (DRB5*0101),> 6.00
same,pIC50,DR1,8.70
same,pIC50,DRB3,< 4.00
same,pIC50,DRB5,8.52
CC[C@H](C)[C@H](NC(=O)[C@@H](NC(=O)[C@H](CCCNC(=N)N)NC(=O)[C@@H](NC(=O)CNC(=O)[C@H](C)NC(=O)CNC(=O)[C@H](Cc1c[nH]cn1)NC(=O)[C@H](Cc1ccc(O)cc1)NC(=O)[C@@H](NC(=O)[C@@H](NC(=O)[C@H](Cc1c[nH]c2ccccc12)NC(=O)[C@H](C)NC(=O)[C@@H](NC(=O)CN)C(C)C)[C@@H](C)O)C(C)C)[C@@H](C)O)[C@@H](C)O)C(=O)N[C@@H](C)C(=O)N[C@@H](CO)C(=O)N1CCC[C@H]1C(=O)O [11N 1076-1093] (H-GVAWTVYHGAGTRTIASP-OH; N-terminus and C-terminus assumed),pIC50,HLA-DR1 (DRB1*0101); [2],> 6.00
same,pIC50,HLA-DR7 (DRB1*0701),> 6.00
same,pIC50,HLA-DR11 (DRB1*1101),> 6.00
same,pIC50,HLA-DR15 (DRB1*1501),> 6.00
same,pIC50,HLA-DRB5 (DRB5*0101),> 6.00
same,pIC50,DRB3,5.22
same,pIC50,DRB4,4.22
same,pIC50,DRB5,7.00
CC[C@H](C)[C@H](NC(=O)[C@@H](NC(=O)[C@@H]1CCCN1C(=O)CNC(=O)[C@@H](N)CCCCN)C(C)C)C(=O)N[C@@H](CCC(N)=O)C(=O)N[C@@H](CCSC)C(=O)N[C@@H](Cc1ccc(O)cc1)C(=O)N[C@H](C(=O)N[C@@H](CC(N)=O)C(=O)N[C@H](C(=O)N[C@@H](CC(=O)O)C(=O)N[C@@H](CCC(N)=O)C(=O)N[C@@H](CC(=O)O)C(=O)N[C@@H](CC(C)C)C(=O)N[C@H](C(=O)NCC(=O)N[C@@H](Cc1c[nH]c2ccccc12)C(=O)N1CCC[C@H]1C(=O)N[C@@H](C)C(=O)N1CCC[C@H]1C(=O)N[C@@H](CCC(N)=O)C(=O)NCC(=O)N[C@@H](CO)C(=O)N[C@@H](CCCNC(=N)N)C(=O)N[C@@H](CO)C(=O)O)C(C)C)C(C)C)[C@@H](C)O [12N 1094-1119] (H-KGPVIQMYTNVDQDLVGWPAPQGSRS-OH; N-terminus and C-terminus assumed),pIC50,HLA-DR1 (DRB1*0101); [3],< 5.00
same,affinity for HLA-DR1 (in words),HLA-DR1 (DRB1*0101); legend of FIG. 4,low affinity
same,pIC50,DR1,< 5.00
same,pIC50,DR15,7.32
same,pIC50,DRB3,< 5.00
same,pIC50,DP402,5.52
CC[C@H](C)[C@H](NC(=O)[C@@H]1CCCN1C(=O)[C@H](CCCNC(=N)N)NC(=O)[C@@H]1CCCN1C(=O)[C@H](CO)NC(=O)[C@H](CC(C)C)NC(=O)[C@H](CC(C)C)NC(=O)[C@H](CO)NC(=O)CNC(=O)[C@@H](N)CCCNC(=N)N)C(=O)N[C@@H](CO)C(=O)N[C@@H](Cc1ccc(O)cc1)C(=O)N[C@@H](CC(C)C)C(=O)N[C@@H](CCCCN)C(=O)NCC(=O)N[C@@H](CO)C(=O)N[C@@H](CO)C(=O)NCC(=O)NCC(=O)N1CCC[C@H]1C(=O)N[C@@H](CC(C)C)C(=O)N[C@@H](CC(C)C)C(=O)N[C@@H](C)C(=O)N1CCC[C@H]1C(=O)O [14N 1149-1172] (H-RGSLLSPRPISYLKGSSGGPLLAP-OH; N-terminus and C-terminus assumed),pIC50,HLA-DR1 (DRB1*0101); [2],> 6.00
same,pIC50,HLA-DR7 (DRB1*0701),> 6.00
same,pIC50,HLA-DR15 (DRB1*1501),> 6.00
same,pIC50,HLA-DRB4 (DRB4*0101); read-out: binds with good affinity to DRB4,> 6.00
same,pIC50,HLA-DRB5 (DRB5*0101),> 6.00
same,pIC50,DR1,8.10
same,pIC50,DR4,5.05
same,pIC50,DRB4,7.00
same,pIC50,DP402,< 4.00
CC[C@H](C)[C@H](NC(=O)[C@H](Cc1ccccc1)NC(=O)[C@H](CC(=O)O)NC(=O)[C@@H](NC(=O)[C@H](C)NC(=O)[C@H](CCCCN)NC(=O)[C@H](C)N)C(C)C)C(=O)N1CCC[C@H]1C(=O)N[C@H](C(=O)N[C@@H](CCC(=O)O)C(=O)N[C@@H](CC(N)=O)C(=O)N[C@@H](CC(C)C)C(=O)N[C@@H](CCC(=O)O)C(=O)N[C@H](C(=O)N[C@H](C(=O)N[C@@H](CCSC)C(=O)N[C@@H](CCCNC(=N)N)C(=O)N[C@@H](CO)C(=O)N1CCC[C@H]1C(=O)N[C@H](C(=O)N[C@@H](Cc1ccccc1)C(=O)N[C@H](C(=O)N[C@@H](CC(=O)O)C(=O)O)[C@@H](C)O)C(C)C)[C@@H](C)O)[C@@H](C)O)C(C)C [16N 1190-1212],IL2,[1]; [4],— 85 pg/ml
same,IL2,[1]; [5],— 17 pg/ml
same,IL2,[1]; [6],5 pg/mL
same,IL2,[1]; [7],18 pg/mL
same,IL2,[1]; [8],72 pg/mL
same,IL10,[1]; [8],123 pg/mL
same,pIC50,DR1,6.22
same,pIC50,DR15,6.15
same,pIC50,DP401,5.39
same,pIC50,DP402,5.84
CC[C@H](C)[C@H](NC(=O)CNC(=O)[C@H](CC(C)C)NC(=O)[C@H](C)NC(=O)[C@@H](NC(=O)[C@H](CC(C)C)NC(=O)[C@H](CCCCN)NC(=O)[C@H](C)NC(=O)[C@H](C)N)C(C)C)C(=O)N[C@@H](CC(N)=O)C(=O)N[C@@H](C)C(=O)N[C@H](C(=O)N[C@@H](C)C(=O)N[C@@H](Cc1ccc(O)cc1)C(=O)N[C@@H](Cc1ccc(O)cc1)C(=O)N[C@@H](CCCNC(=N)N)C(=O)NCC(=O)N[C@@H](CC(C)C)C(=O)N[C@@H](CC(=O)O)C(=O)N[C@H](C(=O)N[C@@H](CO)C(=O)N[C@H](C(=O)N[C@H](C(=O)N1CCC[C@H]1C(=O)N[C@H](C(=O)N[C@@H](CO)C(=O)NCC(=O)N[C@@H](CC(=O)O)C(=O)N[C@H](C(=O)O)C(C)C)[C@@H](C)O)[C@@H](C)CC)C(C)C)C(C)C)C(C)C [24N 1404-1432],pIC50,DR1,7.30
same,pIC50,DP401,4.49
same,pIC50,DP402,5.15
CC[C@H](C)[C@H](NC(=O)[C@H](Cc1c[nH]cn1)NC(=O)[C@@H](NC(=O)[C@H](CC(C)C)NC(=O)CNC(=O)[C@@H](N)[C@@H](C)O)[C@@H](C)O)C(=O)N[C@@H](CC(=O)O)C(=O)N[C@@H](C)C(=O)N[C@@H](Cc1c[nH]cn1)C(=O)N[C@@H](Cc1ccccc1)C(=O)N[C@@H](CC(C)C)C(=O)N[C@@H](CO)C(=O)N[C@@H](CCC(N)=O)C(=O)N[C@H](C(=O)N[C@@H](CCCCN)C(=O)O)[C@@H](C)O [29N 1563-1577],pIC50,HLA-DR1 (DRB1*0101); [3],8.10
same,pIC50,"HLA-DRB4 (DRB4*0101); tracer E2/E168, read-out: IC50, binding to HLA-DRB4",4.40
phytohemagglutinin [PHA],IFNγ,[1]; [4],2447 pg/mL
same,IL2,[1]; [4],1337 pg/mL
same,IL4,[1]; [4],632 pg/mL
same,IL10,[1]; [4],665 pg/mL
same,IFNγ,[1]; [5],2249 pg/mL
same,IL2,[1]; [5],207 pg/mL
same,IL4,[1]; [5],55 pg/mL
same,IL10,[1]; [5],207 pg/mL
same,IL2,"[1]; patient 093, assay at 24 h instead of 48 h",1402* pg/ml
same,IFNγ,[1]; [6],8542 pg/mL
same,IL4,[1]; [6],127 pg/mL
same,IL10,[1]; [6],8551 pg/mL
same,IL2,"[1]; patient 342, supernatant 48 h, —: not detected",125 pg/mL
same,IFNγ,[1]; [9],474 pg/mL
same,IL2,[1]; [9],18874 pg/mL
same,IL4,[1]; [9],251 pg/mL
same,IL10,[1]; [9],242 pg/mL
same,IFNγ,[1]; [7],— 187 pg/ml
same,IL2,[1]; [7],153 — pg/ml
same,IL4,[1]; [7],453 pg/mL
same,IL10,[1]; [7],182 pg/mL
same,IFNγ,[1]; [8],1979 pg/mL
same,IL2,[1]; [8],1002 pg/mL
same,IL4,[1]; [8],5638 pg/mL
same,IL10,[1]; [8],497 pg/mL
same,IFNγ,[1]; [10],9902 pg/mL
same,IL2,[1]; [10],60 pg/mL
same,IL4,[1]; [10],9 pg/mL
tetanus toxin [TT],IL4,[1],24 pg/mL
